In patent publication US20240208912A1 (Mirati Therapeutics, Inc., priority 2021, published 2024):

Tested on: HCT116 homozygous MTAP knockout cells
Test: Proliferation assay (CellTiter-Glo, 10 days) in HCT116 homozygous MTAP knockout cells
Format: cell-based
Conditions: CellTiter-Glo after 10 days of treatment, read-out: Proliferation IC50 (nM) HCT116 MTAP_KO
Procedure: HCT116 cells were genetically engineered to knock out the function of both MTAP alleles using a CRISPR/Cas9 system and an sgRNA targeting the MTAP gene. Following Cas9/MTAP sgRNA transduction, clones were screened to confirm that each allele of the MTAP gene had been inactivated (i.e., homozygous MTAP knock out) creating an MTAP-deficient cell.
Control samples were analyzed in parallel.
Briefly, on Day 0, 250 HCT116 parental or HCT116 homozygous MTAP knockout cell were seeded in 96 well plates in McCoy's 5A supplemented with […] fetal bovine serum and pen/strep and the cells were incubated overnight at 37° C. plus 5% CO2.
The following day, cells were treated with DMSO vehicle control or a dose response of PRMT5 inhibitors and incubated at 37 C plus 5% CO2 for five days. On Day 6, the cells were trypsinized and split 1:10 into new 96-well plates with fresh medium containing the same concentration of PRMT5 inhibitor and incubated for an additional 5 days at 37° C. plus 5% CO^2.
On Day 11, the viability of the cells was measured using a CTG assay kit (CellTiter-Glo; Promega cat.no G7573) in accordance with the manufacturer's instructions. The IC50 values for each compound after 10 days of treatment were calculated using GraphPad PRISM software.

Row | IC50 [nM] | Structure (SMILES)
1 | 626 | Cc1c(F)c(-c2c(-c3ccc4c(=O)[nH]nc(CN)c4c3)cnn2C)c(C#N)c2cc(Cl)cnc12 (atropisomer, axis not shown; (P)) [Example 16-33]
2 | 183 | Cn1ncc(-c2ccc3c(=O)[nH]nc(CN)c3c2)c1-c1c(C#N)cc2ncccc2c1Cl (atropisomer, axis not shown; (M)) [Example 16-86, (M)-6-(4-(4-(aminomethyl)-1-oxo-1,2-dihydrophthalazin-6-yl)-1-methyl-1H-pyrazol-5-yl)-5-chloroquinoline-7-carbonitrile]
3 | 4380 | Cn1ncc(-c2ccc3c(=O)[nH]nc(CN)c3c2)c1-c1c(C#N)cc2ncccc2c1Cl (atropisomer, axis not shown; (P)) [Example 16-85, (P)-6-(4-(4-(aminomethyl)-1-oxo-1,2-dihydrophthalazin-6-yl)-1-methyl-1H-pyrazol-5-yl)-5-chloroquinoline-7-carbonitrile]
4 | 123 | Cn1ncc(-c2ccc3c(=O)[nH]nc(CN)c3c2)c1-c1c(C#N)cc2cccnc2c1Cl (atropisomer, axis not shown; (M)) [Example 16-84, (M)-7-(4-(4-(aminomethyl)-1-oxo-1,2-dihydrophthalazin-6-yl)-1-methyl-1H-pyrazol-5-yl)-8-chloroquinoline-6-carbonitrile]
5 | 20 | Cc1c(F)c(-c2c(-c3ccc4c(=O)[nH]nc(CN)c4c3)cnn2C)c(C#N)c2cc(Cl)cnc12 (atropisomer, axis not shown; (M)) [Example 16-34, (M)-6-[4-[4-(aminomethyl)-1-oxo-2H-phthalazin-6-yl]-2-methyl-pyrazol-3-yl]-3-chloro-7-fluoro-8-methyl-quinoline-5-carbonitrile]
6 | 3450 | Cn1ncc(-c2ccc3c(=O)[nH]nc(CN)c3c2)c1-c1cccc2c1COCC2(C)O (atropisomer, axis not shown; (P)) [Example 16-104, (P)-4-(aminomethyl)-6-(5-(4-hydroxy-4-methylisochroman-8-yl)-1-methyl-1H-pyrazol-4-yl)phthalazin-1(21)-one]

Same assay, conditions: Homo sapiens, HCT-116, 240 h, CellTiter-Glo after 10 days of treatment, read-out: Proliferation IC50 (nM) HCT116 MTAP_KO

Row | IC50 [nM] | Structure (SMILES)
7 | 1880 | Cn1ncc(-c2ccc3c(=O)[nH]nc(CN)c3c2)c1-c1sc2cccnc2c1C#N [Example 4-275, 2-(4-(4-(aminomethyl)-1-oxo-1,2-dihydrophthalazin-6-yl)-1-methyl-1H-pyrazol-5-yl)thieno[3,2-b]pyridine-3-carbonitrile]
8 | 4000 | Cn1ncc(-c2ccc3c(=O)[nH]nc(CN)c3c2)c1-c1cccc2c1COCC2(C)O (atropisomer, axis not shown; (M)) [Example 16-103, (M)-4-(aminomethyl)-6-(5-(4-hydroxy-4-methylisochroman-8-yl)-1-methyl-1H-pyrazol-4-yl)phthalazin-1(2H)-one]
9 | 278 | Cn1ncc(-c2ccc3c(=O)[nH]nc(CN)c3n2)c1-c1sc2ccccc2c1C#N [Example 17-3, 2-[4-[8-(aminomethyl)-5-oxo-6H-pyrido[2,3-d]pyridazin-2-yl]-2-methyl-pyrazol-3-yl]benzothiophene-3-carbonitrile]
10 | 158 | Cn1ncc(-c2ccc3c(=O)[nH]nc(CN)c3c2)c1-c1c(F)cc2c(c1C#N)OCO2 (atropisomer, axis not shown; (P)) [Example 16-87, (P)-5-[4-[4-(aminomethyl)-1-oxo-2H-phthalazin-6-yl]-2-methyl-pyrazol-3-yl]-6-fluoro-1,3-benzodioxole-4-carbonitrile]

Molecular target: T1, PRMT5/MEP50 complex (Homo sapiens, UniProt O14744)
T1 construct: purchased Reaction Biology Corporation
T1 sequence (O14744 2-637 limits assumed): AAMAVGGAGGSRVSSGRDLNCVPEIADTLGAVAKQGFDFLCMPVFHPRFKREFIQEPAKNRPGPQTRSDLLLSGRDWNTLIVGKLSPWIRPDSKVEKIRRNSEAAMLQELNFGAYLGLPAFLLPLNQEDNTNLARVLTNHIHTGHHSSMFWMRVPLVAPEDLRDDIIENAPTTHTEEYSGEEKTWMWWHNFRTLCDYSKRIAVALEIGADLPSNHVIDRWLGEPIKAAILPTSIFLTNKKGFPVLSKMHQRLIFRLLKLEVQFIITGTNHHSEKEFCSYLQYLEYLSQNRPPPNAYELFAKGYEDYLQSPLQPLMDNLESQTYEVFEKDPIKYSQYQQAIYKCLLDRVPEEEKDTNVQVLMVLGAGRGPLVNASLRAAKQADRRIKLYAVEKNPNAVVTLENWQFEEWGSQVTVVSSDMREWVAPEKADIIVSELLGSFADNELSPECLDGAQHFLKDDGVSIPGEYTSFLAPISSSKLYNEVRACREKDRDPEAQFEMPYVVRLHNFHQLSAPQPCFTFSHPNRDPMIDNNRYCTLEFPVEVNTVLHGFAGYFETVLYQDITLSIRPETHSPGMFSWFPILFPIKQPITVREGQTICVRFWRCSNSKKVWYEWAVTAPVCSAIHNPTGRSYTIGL
T1 sequence (Q9BQA1 2-342 partner limits assumed): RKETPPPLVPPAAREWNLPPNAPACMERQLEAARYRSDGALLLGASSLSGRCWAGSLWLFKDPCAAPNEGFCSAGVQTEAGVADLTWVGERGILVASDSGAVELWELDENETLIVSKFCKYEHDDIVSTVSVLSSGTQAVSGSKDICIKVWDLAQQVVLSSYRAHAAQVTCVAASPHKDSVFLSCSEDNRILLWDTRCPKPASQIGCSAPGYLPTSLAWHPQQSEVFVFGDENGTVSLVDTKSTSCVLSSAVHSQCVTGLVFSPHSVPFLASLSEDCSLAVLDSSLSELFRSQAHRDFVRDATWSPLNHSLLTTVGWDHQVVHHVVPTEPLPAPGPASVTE
Test: PRMT5:MEP50 HotSpot Assay (full-length histone H2A substrate, plus and minus MTA)
Format: biochemical
Conditions: IC50 + 2 μM MTA, in the presence of 2 μM MTA
Procedure: The PRMT5 inhibitory activity of compounds of the present invention was determined using either a PRMT5:MEP50 FlashPlate Assay (Reaction Biology Corporation) or a PRMT5:MEP50 HotSpot Assay (Reaction Biology Corporation).
The assay uses recombinant full-length hi stone H2A as the PRMT5 substrate. […] The reaction was stopped and transferred to filter paper for detection. The amount of tritiated H2A in each sample was determined using a scintillation counter.

Row | Structure (SMILES) | IC50 [nM]
11 | Cc1ncc(-c2ccc3c(=O)[nH]nc(CN)c3c2)n1-c1sc2ccccc2c1C#N [Example 4-288, 2-(5-(4-(aminomethyl)-1-oxo-1,2-dihydrophthalazin-6-yl)-2-methyl-1H-imidazol-1-yl)benzo[b]thiophene-3-carbonitrile] | 1480
12 | Cc1c(F)c(-c2c(-c3cc(C)c4c(=O)[nH]nc(CN)c4c3)cnn2C)c(C#N)c2cc(Cl)cnc12 (single isomer, unassigned) [Example 16-107, (P)-6-(4-(4-(aminomethyl)-8-methyl-1-oxo-1,2-dihydrophthalazin-6-yl)-1-methyl-1H-pyrazol-5-yl)-3-chloro-7-fluoro-8-methylquinoline-5-carbonitrile] | 634
13 | Cc1cnc2cc(F)c(-c3c(-c4ccc5c(=O)[nH]nc(CN)c5c4)cnn3C)c(C#N)c2c1 (atropisomer, axis not shown; (P)) [Example 16-36, (P)-6-[4-[4-(aminomethyl)-1-oxo-2H-phthalazin-6-yl]-2-methyl-pyrazol-3-yl]-7-fluoro-3-methyl-quinoline-5-carbonitrile] | 543
14 | Cc1cc2ccccc2c(C#N)c1-c1c(-c2ccc3c(=O)[nH]nc(CN)c3c2)cnn1C (single isomer, unassigned) [Example 12-15B] | 356

Results, then the compound that gave them:

Row | IC50 [nM] | Structure (SMILES)
15 | 955 | Cn1ncc(-c2ccc3c(=O)[nH]nc(CN)c3c2)c1-c1c(F)cc(S(F)(F)(F)(F)F)cc1C#N (atropisomer, axis not shown; (M)) [Example 16-134, (M)-2-(4-(4-(aminomethyl)-1-oxo-1,2-dihydrophthalazin-6-yl)-1-methyl-1H-pyrazol-5-yl)-3-fluoro-5-(pentafluoro-16-sulfanyl)benzonitrile]
16 | 1310 | Cn1ncc(-c2cnc3c(=O)[nH]nc(CN)c3c2)c1-c1sc2ccccc2c1C#N [Example 17-4, 2-(4-(5-(aminomethyl)-8-oxo-7,8-dihydropyrido[2,3-d]pyridazin-3-yl)-1-methyl-1H-pyrazol-5-yl)benzo[b]thiophene-3-carbonitrile]
17 | 5 | Cc1c(F)c(-c2c(-c3cc(C)c4c(=O)[nH]nc(CN)c4c3)cnn2C)c(C#N)c2cc(Cl)cnc12 (single isomer, unassigned) [Example 16-108, (M)-6-(4-(4-(aminomethyl)-8-methyl-1-oxo-1,2-dihydrophthalazin-6-yl)-1-methyl-1H-pyrazol-5-yl)-3-chloro-7-fluoro-8-methylquinoline-5-carbonitrile]
18 | > 10000 | Cc1c(Cl)cc(OC2CC2)c(C#N)c1-c1c(-c2ccc3c(=O)[nH]nc(CN)c3c2)cnn1C (single isomer, unassigned) [Example 16-121, (M)-2-(4-(4-(aminomethyl)-1-oxo-1,2-dihydrophthalazin-6-yl)-1-methyl-1H-pyrazol-5-yl)-4-chloro-6-cyclopropoxy-3-methylbenzonitrile]
19 | 29 | Cn1ncc(-c2ccc3c(=O)[nH]nc(CN)c3c2)c1-c1c(F)c(Cl)cc(CC2CC2)c1C#N (single isomer, unassigned) [Example 16-126, (M)-2-(4-(4-(aminomethyl)-1-oxo-1,2-dihydrophthalazin-6-yl)-1-methyl-1H-pyrazol-5-yl)-4-chloro-6-(cyclopropylmethyl)-3-fluorobenzonitrile]
20 | 1080 | Cn1ncc(-c2ccc3c(=O)[nH]nc(CN)c3c2)c1-c1c(F)cc(S(F)(F)(F)(F)F)cc1C#N (atropisomer, axis not shown; (P)) [Example 16-133, (P)-2-(4-(4-(aminomethyl)-1-oxo-1,2-dihydrophthalazin-6-yl)-1-methyl-1H-pyrazol-5-yl)-3-fluoro-5-(pentafluoro-16-sulfanyl)benzonitrile]
21 | > 10000 | Cn1ncc(-c2ccc3c(=O)[nH]nc(CN)c3c2)c1-c1c(C2COC2)ccc2c1COC2 (atropisomer, axis not shown; (P)) [Example 16-137, (P)-4-(aminomethyl)-6-(1-methyl-5-(5-(oxetan-3-yl)-1,3-dihydroisobenzofuran-4-yl)-1H-pyrazol-4-yl)phthalazin-1(2H)-one]
22 | 251 | Cn1ncc(-c2ccc3c(=O)[nH]nc(CN)c3c2)c1-c1c(Cl)ccc(OC2CC2)c1C#N (atropisomer, axis not shown; (M)) [Example 16-132, (M)-2-(4-(4-(aminomethyl)-1-oxo-1,2-dihydrophthalazin-6-yl)-1-methyl-1H-pyrazol-5-yl)-3-chloro-6-cyclopropoxybenzonitrile]
23 | 8720 | Cn1ncc(-c2ccc3c(=O)[nH]nc(CN)c3c2)c1-c1c(C#N)cc2[nH]cnc2c1Cl (atropisomer, axis not shown; (M)) [Example 16-115, (M)-5-(4-(4-(aminomethyl)-1-oxo-1,2-dihydrophthalazin-6-yl)-1-methyl-1H-pyrazol-5-yl)-4-chloro-1H-benzo[d]imidazole-6-carbonitrile]
24 | 1270 | C[C@@H](N)c1n[nH]c(=O)c2ccc(-c3cnn(C)c3-c3ccc4ccccc4c3C#N)nc12 [Example 20-1]
25 | 393 | Cn1ncc(-c2ccc3c(=O)[nH]nc(CN)c3c2)c1-c1c(F)cnc(OC2CC2)c1C#N (atropisomer, axis not shown; (M)) [Example 16-136, (M)-4-(4-(4-(aminomethyl)-1-oxo-1,2-dihydrophthalazin-6-yl)-1-methyl-1H-pyrazol-5-yl)-2-cyclopropoxy-5-fluoronicotinonitrile]
